One series has as its system Enterococcus faecium. Put plainly: Antibacterial activity against vancomycin resistant Enterococcus faecium 419/ANA assessed as reduction in microbial growth incubated for 24 hrs by microdilution assay. The class given is functional. A general note: Broth dilution looks for growth in wells or tubes with falling amounts of substance.
Series [1] has as its system Escherichia coli. Put plainly: Antibacterial activity against multidrug-resistant Escherichia coli CE5556 expressing CTX-M-15 assessed as reduction in microbial growth incubated for 24 hrs by microdilution assay. The format is functional.
For a further series, the system named is Pseudomonas aeruginosa. Description: Antibacterial activity against Pseudomonas aeruginosa ATCC 27853 = CCM 3955 assessed as inhibition of bacterial growth incubated for 24 hrs by microdilution assay. The class given is functional.
Series [2] concerns Staphylococcus epidermidis. Description: Antibacterial activity against Staphylococcus epidermidis CCM 7221 assessed as inhibition of bacterial growth incubated for 24 hrs by microdilution assay. The format is functional.
Series [3] in a line: Gradient chromatographic hydrophobicity index of the compound at pH 3.7 by HPLC analysis. The format is ADME.
In series [4] the test system is Escherichia coli. Put plainly: Antibacterial activity against Escherichia coli ATCC 25922 = CCM 3954 assessed as inhibition of bacterial growth incubated for 24 hrs by microdilution assay. The class given is functional.
Series [5] deals with Staphylococcus aureus. Put plainly: Antibacterial activity against methicillin resistant Staphylococcus aureus 4591/A assessed as reduction in microbial growth incubated for 24 hrs by microdilution assay. The class given is functional.
For the next series, the system named is Enterococcus faecalis. Put plainly: Antibacterial activity against Enterococcus faecalis ATCC 29212 = CCM 4224 assessed as inhibition of bacterial growth incubated for 24 hrs by microdilution assay. The class given is functional.
Series [6] is described as follows: Hemolytic activity in human RBC assessed as haemoglobin release measured after 3 hr. The format is toxicity, cell-based, Erythrocyte. The following applies: red blood cells (erythrocytes).
For series [7], the system named is Escherichia coli. Description: Antibacterial activity against Escherichia coli ATCC 25922 = CCM 3954 assessed as inhibition of bacterial growth incubated for 24 hrs in presence of BSA by microdilution assay. The format is functional.
In series [8] the test system is Staphylococcus aureus. Put plainly: Antibacterial activity against Staphylococcus aureus ATCC 29213 = CCM 4223 assessed as inhibition of bacterial growth incubated for 24 hrs in presence of BSA by microdilution assay. The format is functional.
Series [9] concerns Staphylococcus aureus. Description: Antibacterial activity against Staphylococcus aureus ATCC 29213 = CCM 4223 assessed as inhibition of bacterial growth incubated for 24 hrs by microdilution assay. The format is functional.

Regarding `CCCCCOP(=O)(CCN(CCCN)CCCN)OCCCCCCCCCCCCCCOP(=O)(CCN(CCCN)CCCN)OCCCCC.Cl.Cl.Cl.Cl.Cl.Cl` (configuration not stated), the MIC stood at 2 µg/mL in the series on Enterococcus faecium; 2 µg/mL in the series with Escherichia coli [1]; 4 µg/mL in the series with Pseudomonas aeruginosa; 0.5 µg/mL in [2]; 2 µg/mL in the series with Escherichia coli [4]; 1 µg/mL in the series on Staphylococcus aureus [5]. The MIC with Enterococcus faecalis amounted to 1 µg/mL. The CHI in series [3] came out at 38.1.
As to `CCCCCCOP(=O)(CCN(CCCN)CCCN)OCCCCCCCCCCCCOP(=O)(CCN(CCCN)CCCN)OCCCCCC.Cl.Cl.Cl.Cl.Cl.Cl` (configuration not stated), the minimal inhibitory concentration (MIC) in the series with Enterococcus faecium amounted to 2 µg/mL; in the series on Escherichia coli [1], 2 µg/mL; in the series with Pseudomonas aeruginosa it was 2 µg/mL; in series [2], 0.125 µg/mL; with Escherichia coli [4] it was 1 µg/mL; in the series on Staphylococcus aureus [5], 0.5 µg/mL. Besides, in the series on Enterococcus faecalis, the minimum inhibitory concentration (MIC) came out at 0.5 µg/mL. In [3], this compound displayed a CHI of 37.7.
`CCCCCCCCCOP(=O)(CCN(CCCN)CCCN)OCCc1ccc(N)cc1.Cl.Cl.Cl.Cl` (configuration not stated): the 50% haemolytic concentration (HC50) at 3 h in [6] was over 100 µg/mL. In addition, the MIC in the series on Escherichia coli [7] is over 128 µg/mL; in the series with Staphylococcus aureus [8] it was over 128 µg/mL; with Pseudomonas aeruginosa, 128 µg/mL; in the series on Escherichia coli [4], 128 µg/mL; in the series on Staphylococcus aureus [9] it was 64 µg/mL; with Enterococcus faecalis, 128 µg/mL.
With `CCCCCCCCOP(=O)(CCN(CCCN)CCCN)OCCCCCCCCCCCCOP(=O)(CCN(CCCN)CCCN)OCCCCCCCC.Cl.Cl.Cl.Cl.Cl.Cl` (configuration not stated), the MIC in the series on Enterococcus faecium worked out at 1 µg/mL; with Escherichia coli [1], 1 µg/mL; in the series with Pseudomonas aeruginosa, 2 µg/mL; in [2], 0.5 µg/mL; in the series on Escherichia coli [4], 1 µg/mL; in the series on Staphylococcus aureus [5], 1 µg/mL. For the same compound, in the series with Enterococcus faecalis, the minimal inhibitory concentration (MIC) came out at 1 µg/mL. This compound displayed a CHI in series [3] of 432.
Regarding `CCCCCCCCCOP(=O)(CCN(CCCN)CCCN)OCCOCc1ccc(OC)cc1.Cl.Cl.Cl` (configuration not stated), in [6], the 50% haemolytic concentration (HC50) at 3 h is 55 µg/mL. Further, the minimal inhibitory concentration (MIC) in the series on Escherichia coli [7] is over 133 µg/mL; in the series on Staphylococcus aureus [8], 128 µg/mL; with Pseudomonas aeruginosa, 16 µg/mL; in the series with Escherichia coli [4], 32 µg/mL; in the series on Staphylococcus aureus [9], 16 µg/mL; in the series on Enterococcus faecalis, 16 µg/mL.
Regarding `CCCCOP(=O)(CCN(CCCN)CCCN)OCCCCCCCCCCCCCCOP(=O)(CCN(CCCN)CCCN)OCCCC.Cl.Cl.Cl.Cl.Cl.Cl` (configuration not stated), the MIC came out at 16 µg/mL in the series with Enterococcus faecium; 32 µg/mL in the series with Escherichia coli [1]; 4 µg/mL in the series with Pseudomonas aeruginosa; 0.5 µg/mL in series [2]; 16 µg/mL in the series with Escherichia coli [4]; 2 µg/mL in the series with Staphylococcus aureus [5]. For the same compound, in the series on Enterococcus faecalis, the MIC was 4 µg/mL. In addition, the CHI in series [3] came to 35.2.
With `CCCCCCOP(=O)(CCN(CCCN)CCCN)OCCCCCCCCCCCCCCOP(=O)(CCN(CCCN)CCCN)OCCCCCC.Cl.Cl.Cl.Cl.Cl.Cl` (configuration not stated), the minimal inhibitory concentration (MIC) in the series on Enterococcus faecium was found to be 2 µg/mL; with Escherichia coli [1] it was 1 µg/mL; in the series on Pseudomonas aeruginosa, 2 µg/mL; in series [2], 0.5 µg/mL; in the series with Escherichia coli [4] it was 1 µg/mL; with Staphylococcus aureus [5], 1 µg/mL. In the series on Enterococcus faecalis, the minimum inhibitory concentration (MIC) is 1 µg/mL. This compound also had a CHI in [3] of 40.6.
As to `CCCCCCCCCOP(=O)(CCN(CCCN)CCCN)OCCc1ccc(Cl)cc1.Cl.Cl.Cl` (configuration not stated), the HC50 at 3 h in [6] was determined as 17.3 µg/mL. Further, the minimum inhibitory concentration (MIC) was 64 µg/mL with Escherichia coli [7]; 64 µg/mL in the series with Staphylococcus aureus [8]; 8 µg/mL with Pseudomonas aeruginosa; 2 µg/mL with Escherichia coli [4]; 2 µg/mL in the series with Staphylococcus aureus [9]; 2 µg/mL in the series on Enterococcus faecalis.
`CCCCCCOP(=O)(CCN(CCCN)CCCN)OCCc1cccc2ccccc12.Cl.Cl.Cl` (configuration not stated): the concentration for 50% haemolysis (HC50) at 3 h in series [6] was over 100 µg/mL. Moreover, the MIC was over 131 µg/mL in the series with Escherichia coli [7]; over 128 µg/mL in the series on Staphylococcus aureus [8]; 64 µg/mL in the series on Pseudomonas aeruginosa; over 128 µg/mL with Escherichia coli [4]; 64 µg/mL in the series on Staphylococcus aureus [9]; 64 µg/mL in the series with Enterococcus faecalis.
Regarding `CCCCCCCCCCCCCCOP(=O)(CCN(CCCN)CCCN)OCC.Cl.Cl.Cl` (configuration not stated), the concentration for 50% haemolysis (HC50) at 3 h in series [6] was determined as 12.2 µg/mL. The minimum inhibitory concentration (MIC) in the series with Escherichia coli [7] was over 128 µg/mL; in the series with Staphylococcus aureus [8], over 128 µg/mL; with Pseudomonas aeruginosa, 4 µg/mL; in the series on Escherichia coli [4], 4 µg/mL; with Staphylococcus aureus [9] it was 4 µg/mL; with Enterococcus faecalis it was 4 µg/mL.
Consider `CCCCCCCCCCCCCCCOP(=O)(CCN(CCCN)CCCN)OCC.Cl.Cl.Cl` (configuration not stated), for which the concentration for 50% haemolysis (HC50) at 3 h in series [6] is 6.9 µg/mL. Also, the minimal inhibitory concentration (MIC) in the series with Escherichia coli [7] is over 129 µg/mL; in the series with Staphylococcus aureus [8], over 128 µg/mL; in the series on Pseudomonas aeruginosa it was 2 µg/mL; in the series on Escherichia coli [4], 1 µg/mL; with Staphylococcus aureus [9], 2 µg/mL; with Enterococcus faecalis, 2 µg/mL.
For `CCCCCCCCCOP(=O)(CCN(CCCN)CCCN)OCCc1cccc2ccccc12.Cl.Cl.Cl` (configuration not stated), the HC50 at 3 h in [6] is 12.8 µg/mL. Moreover, the MIC in the series on Escherichia coli [7] was 64 µg/mL; in the series on Staphylococcus aureus [8], 64 µg/mL; with Pseudomonas aeruginosa, 4 µg/mL; in the series on Escherichia coli [4], 4 µg/mL; with Staphylococcus aureus [9] it was 2 µg/mL; with Enterococcus faecalis it was 2 µg/mL.
As to `CCCCCCCCCOP(=O)(CCN(CCCN)CCCN)OCCc1ccccc1.Cl.Cl.Cl` (configuration not stated), the HC50 at 3 h in series [6] is 58.7 µg/mL. In addition, the MIC with Pseudomonas aeruginosa came out at 16 µg/mL; in the series with Escherichia coli [4], 32 µg/mL; with Staphylococcus aureus [9] it was 16 µg/mL; in the series on Enterococcus faecalis it was 32 µg/mL.
As to `CCCCCCCCCCCCOP(=O)(CCN(CCCN)CCCN)OCCc1c[nH]c2ccccc12.Cl.Cl.Cl.Cl` (configuration not stated), the HC50 at 3 h in series [6] stood at 12.1 µg/mL. For the same compound, the MIC was found to be 8 µg/mL with Pseudomonas aeruginosa, 4 µg/mL with Escherichia coli [4], 2 µg/mL in the series on Staphylococcus aureus [9] and 4 µg/mL in the series with Enterococcus faecalis.
In the case of `CCCCCCCCCOP(=O)(CCN(CCCN)CCCN)OCCc1ccc([N+](=O)[O-])cc1.Cl.Cl.Cl` (configuration not stated), the 50% haemolytic concentration (HC50) at 3 h in series [6] was determined as 50 µg/mL. Besides, the minimum inhibitory concentration (MIC) in the series on Escherichia coli [7] turned out to be 128 µg/mL; in the series on Staphylococcus aureus [8], 64 µg/mL; in the series with Pseudomonas aeruginosa, 8 µg/mL; in the series on Escherichia coli [4], 16 µg/mL; in the series with Staphylococcus aureus [9], 8 µg/mL; in the series with Enterococcus faecalis, 16 µg/mL.
Regarding `CCCCCCCCOP(=O)(CCN(CCCN)CCCN)OCCOCc1ccccc1.Cl.Cl.Cl` (configuration not stated), the 50% haemolytic concentration (HC50) at 3 h in series [6] is over 100 µg/mL. In addition, the MIC in the series with Escherichia coli [7] was over 132 µg/mL; with Staphylococcus aureus [8], over 128 µg/mL; in the series on Pseudomonas aeruginosa, over 128 µg/mL; in the series on Escherichia coli [4] it was over 128 µg/mL; with Staphylococcus aureus [9], 128 µg/mL; with Enterococcus faecalis, 128 µg/mL.
As to `CCCCCCCCCCCCCCCCOP(=O)(CCN(CCCN)CCCN)OCC.Cl.Cl.Cl` (configuration not stated), the HC50 at 3 h in series [6] was 9.4 µg/mL. The minimal inhibitory concentration (MIC) in the series with Escherichia coli [7] is over 130 µg/mL; with Staphylococcus aureus [8] it was 128 µg/mL; in the series on Pseudomonas aeruginosa, 4 µg/mL; in the series with Escherichia coli [4], 2 µg/mL; with Staphylococcus aureus [9], 2 µg/mL; in the series with Enterococcus faecalis, 2 µg/mL.
In the case of `CCCCCCCCCOP(=O)(CCN(CCCN)CCCN)OCCOCc1ccccc1.Cl.Cl.Cl` (configuration not stated), the HC50 at 3 h in [6] came to 79.8 µg/mL. The MIC in the series on Escherichia coli [7] was over 128 µg/mL; in the series with Staphylococcus aureus [8], over 128 µg/mL; in the series with Pseudomonas aeruginosa it was 64 µg/mL; with Escherichia coli [4] it was 64 µg/mL; in the series with Staphylococcus aureus [9], 32 µg/mL; in the series on Enterococcus faecalis, 32 µg/mL.
Regarding `CCCCCCCCCCCCOP(=O)(CCN(CCCN)CCCN)OCCCCCCCCCCCC.Cl.Cl.Cl`, in [6], the HC50 at 3 h came out at 11.3 µg/mL. For the same compound, the MIC in the series on Pseudomonas aeruginosa is 100 µg/mL; with Escherichia coli [4], 100 µg/mL; in the series on Staphylococcus aureus [9], 100 µg/mL; in the series with Enterococcus faecalis it was 25 µg/mL.
In the case of `CCCCCCCCCCCCCCOP(=O)(CCN(CCCN)CCCN)OCCc1c[nH]c2ccccc12.Cl.Cl.Cl.Cl` (configuration not stated), the concentration for 50% haemolysis (HC50) at 3 h in series [6] was determined as 12.4 µg/mL. The MIC with Pseudomonas aeruginosa came to 2 µg/mL; in the series with Escherichia coli [4] it was 2 µg/mL; with Staphylococcus aureus [9], 2 µg/mL; in the series on Enterococcus faecalis, 4 µg/mL.

What is called MIC is the least concentration at which growth counts as inhibited. As usually defined, the HC50 is the concentration giving 50% haemolysis.

These data come from ChEMBL document CHEMBL5120927, “LEGO-Lipophosphonoxins: A Novel Approach in Designing Membrane Targeting Antimicrobials” (J Med Chem, 2022).
